Where “and” joins values, the source holds several entries; their conditions need not be identical. Equal entries are not always repeated.
What was measured:
Rattus norvegicus [1] = conditions: for NOAEL: M/F
Mus musculus [2] = tested on: Mus musculus
Rattus norvegicus [3] = tested on: Rattus norvegicus
Rattus norvegicus [4] = conditions: M/F
Rattus norvegicus [5] = conditions: uterotrophic; duration: 2 days; injection; subcutaneous; Active
Rattus norvegicus [6] = conditions: oral
Rattus norvegicus [7] = conditions: short-term
Rattus norvegicus [8] = conditions: for LC50: acute, inhalation; for LOAEL / NOAEL: subchronic, oral
Oryctolagus sp. = conditions: acute; dermal; occlusive
Mus musculus [9] = conditions: subchronic, duration: 13 weeks, oral, B6C3F1
[10] = chronic, duration: 2 years, oral, diet, RBC, ChE inhibition + reduced hemoglobin, hematocrit and RBCs
[11] = chronic, oral, diet, Liver cytomegaly, fatty metamorphosis, angiectasis + thyroid cystic follicles
[12] = chronic, duration: 2 years, oral, diet, glomerulonephritis, atrophic testes, eye keratitis reduced body weight and organ weight
[13] = chronic, duration: 2 years, oral, diet, lungs, liver, kidney, thyroid and thyroid hormones
[14] = chronic, duration: 2 years, oral, diet, reduced body weight
[15] = reproduction developmental, inhalation, increased liver weight in p1 males
[16] = duration: 3 days, injection, subcutaneous, F, Sprague-Dawley, uterus: absolute blotted uterine weight
[17] = duration: 4 days, oral, gavage, F, Wistar, female reproductive system: vaginal cornification + uterus: uterine wet weight (relative)
[18] = duration: 4 days, oral, gavage, F, Wistar, uterus: uterine dry weight (relative)
[19] = duration: 10 days, oral, gavage, M, BrlHan:WIST, body weight + spontaneous locomotion
[20] = duration: 10 days, oral, gavage, M, BrlHan:WIST, male accessory sex gland: relative bulbourethral gland weight in the presence of TP
[21] = duration: 28 days, oral, gavage, F, Crj:CD, kidney: kidney weight
[22] = duration: 28 days, oral, gavage, F, Crj:CD, liver: liver weight + thymus: serum T3
[23] = duration: 28 days, oral, gavage, M, Crj:CD, body weight + brain: brain weight + food consumption + liver: liver weight + testis: testes weight + thymus: serum T3 + thymus: serum T4 + …
[24] = acute, duration: 1 hours, oral, gavage, M, inhibition of acetic acid-induced writhing response
[25] = reproduction developmental, oral, reduced offspring body weight
[26] = duration: 13 weeks, drinking water, Fischer 344
[27] = duration: 13 weeks, drinking water, Wistar
[28] = duration: 89 days, gavage, Sprague-Dawley
[29] = subchronic, duration: 90 days, oral, gavage, increased liver weight
[30] = subchronic, oral, gavage, liver toxicity

Work on `Brc1ccc(Oc2ccc(Br)cc2Br)c(Br)c1` [2,2',4,4'-Tetrabromodiphenyl ether] yielded an LOAEL (Rattus norvegicus [1]; subchronic, duration: 8 weeks, oral, gavage, M, Sprague-Dawley, reproductive) of 0.001 mg/kg-day, an LOEL (Mus musculus [2]; developmental, oral, M/F, C57BL/6, generation: F1, F1: Morris water maze (swim speed, first trial) + F1: Morris water maze (swim speed, last trial) + F1: Morris water maze (swim speed, middle…) of 1 mg/kg-day and an LOEL (Mus musculus [2]; reproduction developmental, oral, F, C57BL/6, generation: P0, P0: Morris water maze (latency, first trial)) of 0.03 mg/kg-day.

`COP(=S)(OC)Oc1ccc([N+](=O)[O-])cc1` [Methyl parathion] gave an NOAEL (Rattus norvegicus [3]; subchronic, duration: 90 days, oral, diet, Erythrocytes: Cholinesterase inhibition) of 0.24 mg/kg-day, an NOAEL (Rattus norvegicus [1]; chronic, duration: 28 months, oral, diet, Sprague-Dawley, hematological) of 0.025 mg/kg-day and an LOAEL (Rattus norvegicus [1]; subchronic, duration: 13 weeks, oral, gavage, M, Wistar, neurological) of 0.22 mg/kg-day. The LEL (Rattus norvegicus [4]; [10]) was 0.25 mg/kg-day and the NOEL (Rattus norvegicus [4]; [10]) was 0.025 mg/kg-day.

With `ClC1(Cl)C2(Cl)C3(Cl)C4(Cl)C(Cl)(Cl)C5(Cl)C3(Cl)C1(Cl)C5(Cl)C24Cl` (stereo not drawn) [Mirex] the NOAEL (Rattus norvegicus [3]; chronic, duration: 2 years, oral, diet, Liver: Angiectasis + Liver: Cytomegaly + Liver: Fatty metamorphosis + Thyroid: Cystic follicles) was 0.07 mg/kg-day, the NOAEL (Rattus norvegicus [1]; chronic, duration: 2 years, oral, diet, Fischer 344, hepatic) was 0.075 mg/kg-day and the LEL (Rattus norvegicus [5]) was 1 mg/day. It also gave an LOAEL (Rattus norvegicus [4]; [11]) of 0.7 mg/kg-day and an NOAEL (Rattus norvegicus [4]; [11]) of 0.07 mg/kg-day.

`[Be]` [Beryllium] showed an NOAEL (Rattus norvegicus [3]; chronic, oral, drinking water, None Observed) of 0.54 mg/kg-day.

Compound `Cn1cc(-c2ccccc2)c(=O)c(-c2cccc(C(F)(F)F)c2)c1` [1-Methyl-3-phenyl-5-(3-(trifluoromethyl)phenyl)-4-pyridone] has an NOEL (Rattus norvegicus [3]; chronic, duration: 2 years, oral, diet, Kidney: Glomerulonephritis + Organs: Decreased weight + Testis: Atrophy + Whole body: Decreased weight) of 15.6 mg/kg-day, an LEL (Rattus norvegicus [4]; [12]) of 25 mg/kg-day and an NOEL (Rattus norvegicus [4]; [12]) of 8 mg/kg-day.

`CCOP(=S)(OCC)SCSCC` [Phorate] was tested, and the NOAEL (Rattus norvegicus [3]; subchronic, duration: 13 weeks, oral, diet, Cholinesterase: Inhibition) was 0.033 mg/kg-day.

Work on `COC(=O)c1c(Cl)c(Cl)c(C(=O)OC)c(Cl)c1Cl` [Chlorthal-dimethyl] yielded an NOAEL (Rattus norvegicus [3]; chronic, duration: 2 years, oral, diet, Kidney: Effects + Liver: Effects + Lung: Effects + Thyroid hormones: Effects + Thyroid: Effects) of 1 mg/kg-day, an LOAEL (Rattus norvegicus [4]; [13]) of 10 mg/kg-day and an NOAEL (Rattus norvegicus [4]; [13]) of 1 mg/kg-day.

In the case of `CC(C)Nc1nc(Cl)nc(NC(C)C)n1` [2,4-Bis(isopropylamino)-6-chloro-1,3,5-triazine], the NOEL (Rattus norvegicus [3]; chronic, duration: 2 years, oral, diet, Whole body: Decreased weight gain) is reported as 5 mg/kg-day, the LEL (Rattus norvegicus [4]; [14]) is reported as 50 mg/kg-day and the NOEL (Rattus norvegicus [4]; [14]) is reported as 5 mg/kg-day.

With `Clc1ccc(Cl)cc1` [1,4-Dichlorobenzene] the NOAEL (Rattus norvegicus [3]; chronic, inhalation, intermittent, Liver: Increased weight in male parents) was 75 mg/m3, the NOEL (Rattus norvegicus [6]; subchronic, duration: 13 weeks, gavage, M/F, Fischer 344, Deaths + Clinical Observation: Tremors Poor motor response Ocular discharge + Body Weight Changes: decrease + Urinalysis: Coproporphyrin …) was less than 300 mg/kg-day and the LOAEL (Rattus norvegicus [4]; [15]) was 902 mg/m3. For the same compound, the NOAEL (Rattus norvegicus [4]; [15]) was 301 mg/m3.

`Oc1ccccc1` [Phenol] showed an NOAEL (Rattus norvegicus [3]; developmental, oral, gavage, Fetus: Decreased weight) of 60 mg/kg-day.

Compound `O=C1C[C@@H]2OCC=C3CN4CC[C@]56c7ccccc7N1[C@H]5[C@H]2[C@H]3C[C@H]46` [Strychnine] has an LOAEL (Rattus norvegicus [3]; short-term, duration: 28 days, oral, gavage, Unspecified: Histopathology + Unspecified: Toxicity) of 2.5 mg/kg-day and an LOAEL (Rattus norvegicus [4]; subchronic, oral, toxicity/histopathology) of 2.5 mg/kg-day.

Work on `Oc1ccc(Cc2ccc(O)cc2)cc1` [Bis(4-hydroxyphenyl)methane] yielded an NOEL (Rattus norvegicus [6]; short-term, duration: 28 days, gavage, F, CD(SD), Clinical Observation: Decreased locomotor activity Soiled fur Soft stool + Body Weight Changes: decrease + Food Consumption: decrease + …) of less than 20 mg/kg-day, an NOEL (Rattus norvegicus [6]; short-term, duration: 28 days, gavage, M, CD(SD), Clinical Observation: Decreased locomotor activity Soiled fur Soft stool + Body Weight Changes: decrease + Food Consumption: decrease + …) of 20 mg/kg-day and an LOEL (Rattus norvegicus [7]; duration: 3 days, injection, subcutaneous, F, Crj:CD, uterus: uterine dry weight (absolute) + uterus: uterine dry weight (relative) + uterus: uterine wet weight (absolute) + uterus: uterine wet …) of 100 mg/kg-day. For the same compound, the LOEL (Rattus norvegicus [7]; [16]) was 200 mg/kg-day, the NOEL (Rattus norvegicus [7]; [16]) was 20 mg/kg-day and the LOEL (Rattus norvegicus [7]; [17]) was 100 mg/kg-day. It also gave an NOEL (Rattus norvegicus [7]; [17]) of 50 mg/kg-day, an LOEL (Rattus norvegicus [7]; [18]) of 200 mg/kg-day and an NOEL (Rattus norvegicus [7]; [18]) of 100 mg/kg-day. For the same compound, the LOEL (Rattus norvegicus [7]; duration: 5 days, injection, subcutaneous, F, Wistar, uterus: uterine dry weight (relative)) was 0.5 mg/day, the LOEL (Rattus norvegicus [7]; [19]) was 1000 mg/kg-day and the NOEL (Rattus norvegicus [7]; [19]) was 200 mg/kg-day. For the same compound, the NOEL (Rattus norvegicus [7]; duration: 10 days, oral, gavage, M, BrlHan:WIST, body weight in the presence of TP + body weight the absence of TP + male accessory sex gland: relative bulbourethral gland weight in the …) was 1000 mg/kg-day, the NOEL (Rattus norvegicus [7]; duration: 10 days, oral, gavage, M, BrlHan:WIST, male accessory sex gland: BC/LA weight (relative) + male accessory sex gland: Cowper's gland weight (relative) + male accessory sex gland: …) was 1000 mg/kg-day and the LOEL (Rattus norvegicus [7]; [20]) was 200 mg/kg-day. For the same compound, the NOEL (Rattus norvegicus [7]; [20]) was 50 mg/kg-day, the LOEL (Rattus norvegicus [7]; duration: 28 days, oral, gavage, F, Crj:CD, body weight + brain: brain weight + food consumption + thymus: serum T4) was 20 mg/kg-day and the LOEL (Rattus norvegicus [7]; [21]) was 100 mg/kg-day. The NOEL (Rattus norvegicus [7]; [21]) was 20 mg/kg-day, the LOEL (Rattus norvegicus [7]; [22]) was 500 mg/kg-day and the NOEL (Rattus norvegicus [7]; [22]) was 100 mg/kg-day. For the same compound, the LOEL (Rattus norvegicus [7]; [23]) was 500 mg/kg-day, the NOEL (Rattus norvegicus [7]; [23]) was 100 mg/kg-day and the LOEL (Mus musculus [2]; acute, duration: 1 hours, dermal, M, inhibition of arachidonic acid-induced ear edema) was 0.25 mg/ear. For the same compound, the LOEL (Mus musculus [2]; [24]) was 25 mg/kg-day and the NOEL (Mus musculus [2]; [24]) was 12.5 mg/kg-day.

`CCOP(=S)(OCC)Oc1cc(Cl)c(SC)cc1Cl` [Chlorthiophos] was tested, and the NOAEL (Rattus norvegicus [3]; chronic, duration: 2 years, oral, diet, None Observed) was 0.08 mg/kg-day.

`CCOP(=S)(OCC)SCCSCC` [Disulfoton] was tested, and the LOAEL (Rattus norvegicus [3]; chronic, duration: 2 years, oral, diet, Blood: Cholinesterase inhibition + Eye: Degeneration) was 0.04 mg/kg-day, the LOAEL (Rattus norvegicus [1]; chronic, duration: 2 years, oral, diet, F, Fischer 344, neurological) was 0.06 mg/kg-day and the NOAEL (Rattus norvegicus [1]; developmental, duration: 364 days, oral, diet, Sprague-Dawley, neurological, developmental) was 0.009 mg/kg-day. It also gave an NOAEL (Rattus norvegicus [1]; short-term, duration: 3 weeks, inhalation, Wistar TNO/W 74 albino, neurological) of 0.1 mg/m3, an NOAEL (Rattus norvegicus [1]; short-term, duration: 3 weeks, inhalation, chamber, Wistar TNO/W 74 albino, neurological) of 0.1 mg/m3 and an LEL (Rattus norvegicus [4]; chronic, duration: 2 years, oral, diet, cholinesterase inhibition, optic nerve degeneration) of 0.04 mg/kg-day.

With `O=C1CCCCCN1` [Caprolactam] the NOAEL (Rattus norvegicus [3]; subchronic, duration: 90 days, oral, diet, Kidney: Effects) was 50 mg/kg-day, the LOAEL (Rattus norvegicus [4]; [25]) was 250 mg/kg-day and the NOAEL (Rattus norvegicus [4]; [25]) was 50 mg/kg-day.

For `c1ccncc1` [Pyridine], the NOAEL (Rattus norvegicus [3]; subchronic, duration: 90 days, oral, gavage, Liver: Increased relative weight + Liver: Increased weight) was 1 mg/kg-day, the LC50 (Rattus norvegicus [8]) was less than 12900 mg/m3 and the LC50 (Rattus norvegicus [8]; Crl:CD(SD) BR) was ≥ 15900 mg/m3 and ≤ 19400 mg/m3. For the same compound, the LC50 (Rattus norvegicus [8]; Sprague-Dawley) was 29200 mg/m3 and 29100 mg/m3, the LOAEL (Rattus norvegicus [8]; [26]) was 38 mg/kg-day and the NOAEL (Rattus norvegicus [8]; [26]) was 15.2 mg/kg-day. The LOAEL (Rattus norvegicus [8]; [27]) was 38 mg/kg-day, the NOAEL (Rattus norvegicus [8]; [27]) was 15.2 mg/kg-day and the LOAEL (Rattus norvegicus [8]; duration: 13 weeks, gavage, Fischer 344) was 12.5 mg/kg-day. The LOAEL (Rattus norvegicus [8]; [28]) was 10 mg/kg-day, the NOAEL (Rattus norvegicus [8]; [28]) was 1 mg/kg-day and the LD50 (Oryctolagus sp.) was ≥ 1000 mg/kg and ≤ 2000 mg/kg. It also gave an LOAEL (Mus musculus [9]; drinking water) of 26.5 mg/kg-day, an NOAEL (Mus musculus [9]; drinking water) of 13.2 mg/kg-day and an LOAEL (Mus musculus [9]; gavage) of 25 mg/kg-day. It also gave an NOEL (Rattus norvegicus [6]; subchronic, duration: 13 weeks, water, M/F, Fischer 344, Deaths + Body Weight Changes: decrease + Food Consumption: decrease + Hematology: RBC decrease, Hct decrease, Hgb decrease, Plt increase + …) of less than 7.6 mg/kg-day, an LOAEL (Rattus norvegicus [4]; [29]) of 10 mg/kg-day and an NOAEL (Rattus norvegicus [4]; [29]) of 1 mg/kg-day.

`CCNc1nc(NC(C)C)nc(SC)n1` [Ametryn] was tested, and the NOEL (Rattus norvegicus [3]; subchronic, duration: 13 weeks, oral, gavage, Liver: Effects) was 10 mg/kg-day, the LEL (Rattus norvegicus [4]; [30]) was 100 mg/kg-day and the NOEL (Rattus norvegicus [4]; [30]) was 8.6 mg/kg-day and 10 mg/kg-day.
